Test results as given in patent publication US20040242498A1, “CXCR3 antagonists” (priority 2003, published 2004).
Entries after “also recorded” stand apart in the source; their conditions may differ.

Key:
[1] = Excretion of compound 101 and metabolites in urine and bile of bile duct cannulated rats; assay type: in vivo, Sprague Dawley rat; conditions: bile duct cannulated male rats
Method: In addition, compound 101 was administered intravenously or orally to bile duct cannulated male Sprague Dawley rats. Urine and bile samples were collected over a period of 24 hours and analyzed by liquid chromatography/mass spectrometry. Compound 101 was detected in a small amount (<1% of the administered dose) in urine and in bile. In urine, compound 103, the pyridyl-N-oxide of compound 101, was detected. Five metabolites, compounds 103, 105, 107, 109 and 111, were all detected in bile excretions; compound 111 was detected in a trace amount in bile. A proposed metabolic pathway for compound 101 is provided at FIG. 3.
Overall, N-oxidation and O-deethylation occurred to similar extents. The O-deethyl metabolite was detected mainly as a glucuronide conjugate, compound 109. […] Only trace amounts of the glucuronide of the N-oxidized O-deethyl metabolite, compound […], were detected. The detected metabolites, and the relative amounts thereof, in urine and bile agree with the metabolites detected with rat liver microsomal fractions and rat hepatocytes in vitro as discussed above.

[2] = Metabolites of compound 101 with rhesus monkey liver microsomal fractions and hepatocytes; assay type: in vitro ADME; conditions: formed from compound 101; liver microsomal fractions (10 μM, 105 min) or cryopreserved hepatocytes
Method: (§1) Compound 101 was contacted with microsomal fractions from Sprague Dawley rat, dog (beagle), rhesus monkey and human liver to detect and identify resulting metabolites. In particular, Compound 101 in PBS (10 μM) was incubated in a mixture of microsomal protein (1 mg/mL), EDTA (1.0 mM) and NADPH (5 mM) at 37° C. for a total of 105 min. The reaction was stopped by the addition of acetonitrile containing 0.2% formic acid (400 μL). Samples were centrifuged and the supernatant was subjected to LCMS analysis.
(§2) Compound 103, the pyridyl-N-oxide product of compound 101, was detected following contact with the microsomal fractions from all species. Compound 105, the deethylation product of compound 101, was also detected following contact with the microsomal fractions from all species. […] With human microsomal fractions, an amount of compound 107, the deethylation and pyridyl-N-oxide product of compound 101, was also detected.
(§3) Compound 101 was also incubated with intact dog and monkey liver cells (cryopreserved hepatocytes). Following incubation, the formation of compound 109, the glucuronide adduct of compound 105, was detected.

[3] = Metabolites of compound 101 with dog liver microsomal fractions and hepatocytes; assay type: in vitro ADME, dog (beagle); conditions: formed from compound 101; liver microsomal fractions (10 μM, 105 min) or cryopreserved hepatocytes
Method: as §1, §2, §3

[4] = Metabolites of compound 101 with human liver microsomal fractions; assay type: in vitro ADME; conditions: formed from compound 101 (10 μM), microsomal protein 1 mg/mL, NADPH, 37° C., 105 min, LCMS
Method: as §1, §2

[5] = tested on: any cytochrome p450 isoform, including 3A4; experiment: Inhibition or induction of cytochrome p450 isoforms by compound 101; assay type: in vitro ADME, human
[6] = Metabolites of compound 101 with rat liver microsomal fractions; assay type: in vitro ADME, Sprague Dawley rat; conditions: formed from compound 101 (10 μM), 105 min
Method: as §1, §2

[7] = after compound 101 intravenously or orally, 24 hours, LC/MS
[8] = compound 101 intravenously or orally, 24 hours collection

SMILES	Detection in bile [1, 7]	Metabolic Forms of Compound 101: Rat (in vivo), excreta in which detected [1, 8]	Metabolic Forms of Compound 101: Monkey [2]	Metabolic Forms of Compound 101: Dog [3]	Metabolic Forms of Compound 101: Human [4]	Amount detected in urine and in bile, of the administered dose (Rat in vivo) [1, 8]	Inhibition or induction of cytochrome p450 isoforms [5]	Detection in urine [1, 7]	Metabolic Forms of Compound 101: Rat (in vitro) [6]
C[C@H](c1nc2ncccc2c(=O)n1-c1ccc(O)cc1)N(Cc1ccc[n+]([O-])c1)C(=O)Cc1ccc(OC(F)(F)F)cc1 [Compound 107]	detected; also recorded: significant amounts	bile	minor		detected; also recorded: minor				
C[C@H](c1nc2ncccc2c(=O)n1-c1ccc(OC2OC(C(=O)O)C(O)C(O)C2O)cc1)N(Cc1ccc[n+]([O-])c1)C(=O)Cc1ccc(OC(F)(F)F)cc1 (stereo partly shown) [Compound 111]	trace amount	bile (traces)							
C[C@H](c1nc2ncccc2c(=O)n1-c1ccc(O)cc1)N(Cc1cccnc1)C(=O)Cc1ccc(OC(F)(F)F)cc1 [Compound 105]	detected	bile	detected; also recorded: minor	detected; also recorded: minor	detected; also recorded: minor				approximately equal amounts; also recorded: major
CCOc1ccc(-n2c([C@@H](C)N(Cc3ccc[n+]([O-])c3)C(=O)Cc3ccc(OC(F)(F)F)cc3)nc3ncccc3c2=O)cc1 [Compound 103]	detected	urine & bile	more compound 103 than compound 105; also recorded: major	more compound 103 than compound 105; also recorded: major	more compound 103 than compound 105; also recorded: major			detected	approximately equal amounts; also recorded: major

Further lines, with some results ahead:

Detection in bile [1, 7]	Metabolic Forms of Compound 101: Rat (in vivo), excreta in which detected [1, 8]	Metabolic Forms of Compound 101: Monkey [2]	Metabolic Forms of Compound 101: Dog [3]	Metabolic Forms of Compound 101: Human [4]	Amount detected in urine and in bile, of the administered dose (Rat in vivo) [1, 8]	Inhibition or induction of cytochrome p450 isoforms [5]	Detection in urine [1, 7]	SMILES	Metabolic Forms of Compound 101: Rat (in vitro) [6]
detected; also recorded: trace amounts	bile	detected; also recorded: minor	detected; also recorded: minor					C[C@H](c1nc2ncccc2c(=O)n1-c1ccc(OC2OC(C(=O)O)C(O)C(O)C2O)cc1)N(Cc1cccnc1)C(=O)Cc1ccc(OC(F)(F)F)cc1 (stereo partly shown) [Compound 109]	
					<1%	little or no inhibition or induction		CCOc1ccc(-n2c([C@@H](C)N(Cc3cccnc3)C(=O)Cc3ccc(OC(F)(F)F)cc3)nc3ncccc3c2=O)cc1 [Compound 101]	
